Biological target: T1, Clostridium beijerinckii ADH (CbADH), SEQ ID NO: 29 (Clostridium beijerinckii, UniProt P25984)
T1 construct: hexa-histidine (pBADHisA) (N); made in house; host or cells: E. coli (BL21-CodonPlus or a proprietary E. coli strain)
T1 sequence (P25984 1-351): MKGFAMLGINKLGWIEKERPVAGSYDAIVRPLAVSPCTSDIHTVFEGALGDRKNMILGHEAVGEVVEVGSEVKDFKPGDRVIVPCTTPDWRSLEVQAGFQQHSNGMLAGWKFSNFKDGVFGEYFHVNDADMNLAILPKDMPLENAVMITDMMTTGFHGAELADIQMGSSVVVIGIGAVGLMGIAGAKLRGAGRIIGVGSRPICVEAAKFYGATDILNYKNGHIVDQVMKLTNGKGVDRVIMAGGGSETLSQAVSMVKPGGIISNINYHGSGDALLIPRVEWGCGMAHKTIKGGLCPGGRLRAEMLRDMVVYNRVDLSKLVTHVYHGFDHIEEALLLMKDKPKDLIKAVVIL
Assay: isobutyraldehyde reduction kinetics (A340, initial rates)
Type: biochemical
Details: relative to SadB

For CC(C)C=O [isobutyraldehyde], the “KM as a percentage of the same parameter for SadB” value was 150%, the “kcat as a percentage of the same parameter for SadB” value was 113% and the “kcat/KM as a percentage of the same parameter for SadB” value was 81%.

From patent US8765433B2, “Alcohol dehydrogenases (ADH) useful for fermentive production of lower alkyl alcohols” (priority 2009, dated 2014)
